Laboratory results published in EP0452101B1, “Spiro bridged and unbridged heterocyclic compounds” (ISRAEL INSTITUTE FOR BIOLOGICAL RESEARCH, priority 1990, dated 1991).
Several values for one entry are separate records, joined by “and”; a condition that tells them apart may be missing. Identical values can stand only once. Like-named read-outs stand apart in the source and are kept apart here.

Tests used:
[1] = molecular target: T1, M2 muscarinic receptors (Rattus norvegicus, UniProt P10980); test: Displacement of 3H-QNB from rat cerebellum, 50 mM phosphate buffer; type: binding
T1 construct: displacing from rat brain homogenates, cerebellum or frontal cortex; from tissue; host or cells: rat cerebellum homogenates
T1 sequence (P10980 1-466): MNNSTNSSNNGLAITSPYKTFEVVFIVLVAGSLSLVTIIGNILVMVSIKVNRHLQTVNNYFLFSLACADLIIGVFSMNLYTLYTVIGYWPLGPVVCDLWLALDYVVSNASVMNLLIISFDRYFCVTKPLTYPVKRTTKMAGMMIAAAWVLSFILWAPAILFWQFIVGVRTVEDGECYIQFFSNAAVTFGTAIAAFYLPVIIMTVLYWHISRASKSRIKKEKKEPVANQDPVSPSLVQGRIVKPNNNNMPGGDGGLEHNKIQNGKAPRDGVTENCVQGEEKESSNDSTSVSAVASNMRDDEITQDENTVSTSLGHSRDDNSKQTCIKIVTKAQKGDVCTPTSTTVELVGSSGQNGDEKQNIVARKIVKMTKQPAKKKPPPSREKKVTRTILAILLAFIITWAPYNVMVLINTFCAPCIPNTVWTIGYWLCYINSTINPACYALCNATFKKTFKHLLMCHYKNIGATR

[2] = molecular target: T2, M1 muscarinic receptor (Rattus norvegicus, UniProt P08482); test: Displacement of 3H-QNB from rat cerebral cortex, 50 mM phosphate buffer; type: binding; details: for RATIOS c:a: KH2 cerebellum : KH1 cortex (3H-QNB); for % H1 / Ki: cortex, Table 5; for Ki: read-out: 3H-QNB-Binding KH1 (a)
T2 sequence (P08482 1-460): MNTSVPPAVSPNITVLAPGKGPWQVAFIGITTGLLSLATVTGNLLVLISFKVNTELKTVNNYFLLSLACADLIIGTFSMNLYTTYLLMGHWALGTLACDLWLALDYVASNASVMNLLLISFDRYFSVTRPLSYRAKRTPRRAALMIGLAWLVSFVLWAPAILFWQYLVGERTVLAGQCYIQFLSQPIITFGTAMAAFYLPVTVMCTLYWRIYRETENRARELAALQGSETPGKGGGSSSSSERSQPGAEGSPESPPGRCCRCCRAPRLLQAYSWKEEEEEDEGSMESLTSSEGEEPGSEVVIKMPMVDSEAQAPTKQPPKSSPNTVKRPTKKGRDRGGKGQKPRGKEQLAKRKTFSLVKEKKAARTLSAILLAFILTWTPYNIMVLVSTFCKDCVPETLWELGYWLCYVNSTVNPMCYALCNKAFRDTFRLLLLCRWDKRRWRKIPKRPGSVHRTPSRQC

[3] = test system: Male white mice of the CD-1 strain; test: Pharmacodynamic profile and general toxicity, Part B (signs, mortality, LD50); type: in vivo; parameters: key to Altered spontaneous motor activity (Mot): increased (inc); decreased (dec); key to Piloerection (Pil) / Hypothermia (Hyp) / Salivation (Sal) / Lacrimation (Lac) / Diarrhea (Dia) / Mydriasis (Myd): sli = slight; mod = moderate; sev = severe; details: Table 10
Excerpt: Male white mice of the CD-1 strain (Charles River, UK), within the body weight range of 18-26 g, were used throughout this study, carried out on AF123, AF125 and AF125(N).
Furthermore, these initial trials clearly established that the major signs of reactions to treatment consisted primarily of signs characteristic for potential cholinomimetic activity of the test material, such as tremors, salivation, lacrimation, diarrhea, analgesia, hypothermia and vasodilation. […]

[4] = test system: scopolamine-treated rats; test: Passive avoidance (PA) in scopolamine-treated rats; type: in vivo, Sprague-Dawley rats
Protocol: Naive male Sprague-Dawley rats, three months old (obtained from Charles River Breeding, U.K.), were used (weighing 200-300 g.). The passive avoidance (PA) test is according to Fisher et al, Neurosci. Lett. 102: 325 (1989), except that in these rats amnesia was induced by scopolamine.
Eight groups of 17-20 naive rats were used. Each group was divided into two subgroups of 7-10 rats each: subgroup 1 was injected with scopolamine HBr (0.5 mg./kg. in saline, s.c., 15 min. before the shock) and subgroup 2 was injected with saline (1 ml./kg., s.c., 15 min. before the shock). Seven of the groups were treated within one minute after the shock with one of the following doses of the tested compound: 0.1, 0.5, 1, 3, 5, 8, 10 mg./kg. (in saline, i.p.) and one group received saline (1 ml./kg., i.p.).
Eight groups of 18-20 naive rats each were used. Each group was divided into two subgroups of 9-10 rats each: subgroup 1 was injected with scopolamine HBr (0.5 mg./kg. in saline, s.c., 15 min. before the shock) and subgroup 2 was injected with saline (1 ml./kg., s.c., 15 min. before the shock). Seven of the groups were treated, within one minute after the shock, with one of the following doses of AF125(N): 0.1, 0.5, 1, 3, 5, 8 or 10 mg./kg. (in saline, i.p.) and one group received saline (1 ml./kg., i.p.).

[5] = molecular target: T2, M1 muscarinic receptor; test: Displacement of 3H-PZ from rat cerebral cortex, 10 mM phosphate buffer; type: binding; parameters: from tissue; host or cells: rat cerebral cortex homogenates; details: for RATIOS c:a: KH cerebellum (3H-QNB) : KH cortex (3H-PZ)
[6] = test system: muscarinic receptors; test: (-)3H-QNB binding to rat cerebral cortex homogenates with and without Cu++ treatment; details: for Ki: read-out: KL
[7] = 20 mg/kg i.v., animals affected/treated
[8] = post-shock AF125(N) 0.1 mg/kg i.p., pre-shock Scopolamine
[9] = post-shock AF125(N) 0.1 mg/kg i.p., pre-shock saline
[10] = post-shock AF125(N) 0.5 mg/kg i.p., pre-shock Scopolamine, 0.5 mg/kg
[11] = post-shock AF125(N) 0.5 mg/kg i.p., pre-shock saline
[12] = post-shock AF125(N) 1.0 mg/kg i.p., pre-shock Scopolamine
[13] = post-shock AF125(N) 1.0 mg/kg i.p., pre-shock saline
[14] = post-shock AF125(N) 3.0 mg/kg i.p., pre-shock Scopolamine
[15] = post-shock AF125(N) 3.0 mg/kg i.p., pre-shock saline
[16] = post-shock AF125(N) 5.0 mg/kg i.p., pre-shock Scopolamine
[17] = post-shock AF125(N) 5.0 mg/kg i.p., pre-shock saline, 5 mg/kg
[18] = post-shock AF125(N) 8.0 mg/kg i.p., pre-shock Scopolamine
[19] = post-shock AF125(N) 8.0 mg/kg i.p., pre-shock saline
[20] = post-shock AF125(N) 10.0 mg/kg i.p., pre-shock Scopolamine
[21] = post-shock AF125(N) 10.0 mg/kg i.p., pre-shock saline
[22] = cortex, Table 4, read-out: 3H-PZ-Binding KH (a)
[23] = with Cu++ pretreatment (100 µM, 30 minutes)

NC1=NCC2(CN3CCC2CC3)O1 (centres unmarked) [AF125(N), 2-Amino-spiro(1,3-oxazoline-5,3')quinuclidine]
% H ([1]; cerebellum, Table 4): 100% | % H2 ([1]; cerebellum, Table 5): 100% | Ki ([1]; read-out: 3H-QNB-Binding KH2 (c)): 50000 nM | Ki ([1]; read-out: 3H-QNB-Binding KH (c)): 5000 nM | RATIOS c:a [2]: 0.4 | % H1 [2]: 100% | Ki [2]: 112000 nM | Altered spontaneous motor activity (Mot) ([3]; 20 mg/kg i.v.): dec | Mortality no. ([3]; 20 mg/kg i.v.): 0/5 | Mydriasis (Myd) ([3]; 20 mg/kg i.v.): sli | Salivation (Sal) ([3]; 20 mg/kg i.v.): sli | Respiratory distress (Res) [3, 7]: 4/5 | Tremors (Tre) [3, 7]: 3/5 | Mortality no. ([3]; 50 mg/kg i.v.): 5/5 | Mortality time ([3]; 50 mg/kg i.v.): immed | Mortality no. ([3]; 100 mg/kg i.v.): 5/5 | Mortality time ([3]; 100 mg/kg i.v.): immed | Altered spontaneous motor activity (Mot) ([3]; 200 mg/kg p.os): inc | Mortality no. ([3]; 200 mg/kg p.os): 0/5 | Mydriasis (Myd) ([3]; 200 mg/kg p.os): sli | doses with significant enhancing effect on retention latency ([4]; i.p., scopolamine-treated rats): 0.5 mg/kg | Initial latency, Mean [4, 8]: 22.3 s | Retention latency, Mean [4, 8]: 199.7 s | Initial latency, Mean [4, 9]: 21.0 s | Retention latency, Mean [4, 9]: 554.7 s | Initial latency, Mean [4, 10]: 62.9 ± 17.4 s and 62.9 s | Retention latency, Mean [4, 10]: 332.7±80.9 sec. and 332.7* sec. | Initial latency, Mean [4, 11]: 28.1 s | Retention latency, Mean [4, 11]: 600.0 s | Initial latency, Mean [4, 12]: 29.1 s | Retention latency, Mean [4, 12]: 114.8 s | Initial latency, Mean [4, 13]: 22.0 s | Retention latency, Mean [4, 13]: 448.9 s | Initial latency, Mean [4, 14]: 23.1 s | Retention latency, Mean [4, 14]: 243.4 s | Initial latency, Mean [4, 15]: 44.1 s | Retention latency, Mean [4, 15]: 500.1 s | Initial latency, Mean [4, 16]: 24.6 s | Retention latency, Mean [4, 16]: 181.6 s | Initial latency, Mean [4, 17]: 65.1 ± 18.5 s and 65.1 s | Retention latency, Mean [4, 17]: 290.3 ± 52.1 s and 290.3 s | Initial latency, Mean [4, 18]: 16.3 s | Retention latency, Mean [4, 18]: 210.2 s | Initial latency, Mean [4, 19]: 19.3 s | Retention latency, Mean [4, 19]: 552.0 s | Initial latency, Mean [4, 20]: 21.5 s | Retention latency, Mean [4, 20]: 129.7 s | Initial latency, Mean [4, 21]: 4.9 s | Retention latency, Mean [4, 21]: 417.5 s | RATIOS c:a [5]: 83 | % H ([5]; cortex, Table 4): 28% | %L ([5]; cortex, Table 4): 72% | Ki [5, 22]: 600 nM | Ki ([5]; cortex, Table 4, read-out: 3H-PZ-Binding KL (b)): 3000 nM

c1ccc(C2=NCC3(CN4CCC3CC4)O2)cc1 (centres unmarked) [AF125(Ph), 2-Phenyl-spiro(1,3-oxazoline-5,3')quinuclidine]
% H ([1]; cerebellum, Table 4): 100% | Ki ([1]; cerebellum, Table 4, read-out: 3H-QNB-Binding KH (c)): 1370 nM | % H2 ([1]; cerebellum, Table 5): 100% | Ki ([1]; cerebellum, Table 5, read-out: 3H-QNB-Binding KH2 (c)): 1370 nM | RATIOS c:a [2]: 1.7 | % H1 [2]: 100% | Ki [2]: 800 nM | RATIOS c:a [5]: 17.1 | % H ([5]; cortex, Table 4): 100% | Ki [5, 22]: 80 nM

CN1[C@@H]2CC[C@H]1C[C@@H](OC(=O)C(CO)c1ccccc1)C2 (some centres unmarked) [Atropine]
%H (% of high affinity state) [6]: 0%

CN1CCN(CC(=O)N2c3ccccc3C(=O)Nc3cccnc32)CC1 [Pirenzepine]
%H (% of high affinity state) [6, 23]: 64±6% | %H (% of high affinity state) ([6]; without pretreatment): 72±3%

CN1[C@@H]2C[C@@H](OC(=O)[C@H](CO)c3ccccc3)C[C@H]1[C@@H]1O[C@@H]12 [Scopolamine]
%H (% of high affinity state) [6, 23]: 0% | Ki ([6]; with Cu++ pretreatment): 0.1 ± 0.005 nM | %H (% of high affinity state) ([6]; without pretreatment): 0% | Ki ([6]; without pretreatment): 0.09 ± 0.004 nM
